{
  "source": "patent US20190298664A1",
  "about": "“METHOD AND KIT FOR MYOCARDIAL REPERFUSION, AND METHOD FOR ATTENUATING OR REDUCING MYOCARDIAL REPERFUSION INJURY” (Academia Sinica, priority 2018, published 2019)",
  "key": {"PTP-PEST": {"target": "T1, PTP-PEST (Homo sapiens, UniProt Q05209)", "T1 construct": "PTP PEST Catalytic Domain construct (Amino Acid:1-300) with 6 His tag at N-terminal; 6 His (N, cleaved yes); made in house; host or cells: Sf9 insect cells (Sf9-VECL-01), Bac-to-Bac baculovirus system", "T1 sequence (Q05209 1-300)": "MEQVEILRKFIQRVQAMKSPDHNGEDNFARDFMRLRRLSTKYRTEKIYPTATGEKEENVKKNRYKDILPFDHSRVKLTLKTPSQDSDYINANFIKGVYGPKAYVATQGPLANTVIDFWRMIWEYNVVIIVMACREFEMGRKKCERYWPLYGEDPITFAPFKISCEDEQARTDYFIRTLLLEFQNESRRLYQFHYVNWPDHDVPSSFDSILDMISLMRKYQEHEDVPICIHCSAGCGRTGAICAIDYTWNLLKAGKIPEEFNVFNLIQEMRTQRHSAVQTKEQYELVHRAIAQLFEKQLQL", "test": "Thermal stability of PTP-PEST by differential scanning fluorimetry and differential scanning calorimetry", "conditions": "in the presence of Auranofin; apo form shows a single unfolding event"}, "[1]": {"system": "phosphorylation of Paxillin and p130Cas in H9C2 cells", "test": "Immunoblotting of H9c2 total lysates for pTyr of Paxillin and p130Cas", "type": "cell-based", "conditions": "H9C2 cells treated with indicated concentrations", "protocol": "Hearts from mice received different treatment were gently homogenized in ice-cold RIPA buffer [250 mM Tris-HCl pH 7.4, 750 mM NaCl, detergent mix (5% NP-40, 2.5% Na-deoxycholate and 0.5% SDS), and 1× protease inhibitor cocktail (EDTA free)] containing phosphatase inhibitors (2 mM Na3VO4, 10 mM NaF, and 10 mM Na2P2O7). The homogenates were centrifuged at 16,100×g at 4° C. for 10 minutes to remove the debris. Protein concentrations were determined by Bradford protein assay. Equal amounts of protein extract from those mice were separated by SDS-PAGE on an 8% or 10% polyacrylamide gel and then transferred to PVDF membrane. Membranes were incubated with indicated primary antibody at 4° C. overnight followed by incubated with secondary antibodies for 1 hour at room temperature. The protein abundance was detected by the signal intensity of each specific band. H9C2 cell lines were purchased from ATCC® organization, U.S. Cell cultures were maintained in Dulbecco modified Eagle medium (DMEM) supplemented with 10% fetal bovine serum (FBS) and 1% Penicillin/Streptomycin at 37° C. incubator in a 5% CO2 humid atmosphere."}, "I/R mice [2]": {"system": "I/R mice", "test": "Myocardial infarct size (Evans blue/TTC staining) in I/R mice", "type": "in vivo, mouse", "conditions": "2 mg/kg IP", "protocol": "(§1) We anesthetized the mouse with 5% isoflurane mixed with room air until loss of sensation of pain and then maintained the mouse in anesthesia status with 2% isoflurane mixed with room air through the whole procedure. The mouse's body temperature was maintained at 37° C. by a heating pad. After the mouse was intubated, we provided artificial ventilation to the mouse with a small animal ventilator. Then the chest cavity was opened at the second intercostal space and homemade chest retractors were utilized to widen the incision. We pulled the pericardium apart carefully and exposed the left anterior descending artery (LAD). A 7-0 silk was put underneath the LAD at the position of the tip of the left auricle, a 6 mm length of PE-10 tube was put on the surface of the LAD, and then a double knot was made to occlude the blood flow of LAD. The success of ligation was confirmed by paling the anterior wall of the LV. For the reperfusion group, the LAD knot would be untied for the purpose of reperfusion after 1 hour of ischemia. For the sham operation group, all procedures were the same except for the knot that occluded the LAD flow. After the successful procedure, we left the silk in situ, closed the chest cavity and weaned the animal from the ventilator.\nAt the end of experiment, the animal was sacrificed. We opened the chest cavity and exposed the heart and aorta. The heart was perfused with 0.9% saline from the apex until the coronary vessels and myocardium turning into pale color. After saline perfusion, the LAD knot was tied again. 1 mL of 1% Evans blue dye was delivered into the heart through the aortic root by retrograde injection. The dye uniformly perfused the whole heart except in the area of the heart previously perfused by the occluded coronary artery (area at risk, AAR). Then the heart was quickly removed, washed in ice-cold 0.9% saline followed by frozen at −20° C. for 20 minutes, then cut into slices of 1 mm with heart matrix. […] The areas stained with Evans blue negative but TTC-positive (AAR), and TTC-negative area (infarct area) were all measured digitally by ImageJ software. […]"}, "I/R mice [3]": {"system": "I/R mice", "test": "Serum troponin I measurement in I/R mice", "type": "in vivo, mouse", "conditions": "2 mg/kg IP", "protocol": "as §1\nBefore the mouse was sacrificed, blood was drawn from the facial vein. The blood was put in the room temperature for 30 minutes and then centrifuged at 4° C. for 15 minutes at 5000 rpm. After centrifuging, the serum is collected for troponin I measurement with troponin I ELISA kit (KT-469, Kamiya Biomedical Company) according to the manufacture's protocol."}, "I/R mice [4]": {"system": "I/R mice", "test": "Echocardiography (ejection fraction) in I/R mice", "type": "in vivo, mouse", "conditions": "2 mg/kg IP", "protocol": "as §1, with “confirmed by […] anterior wall” for “confirmed by paling the anterior wall”, “the ventilator. At 1 day and 1 week post the indicated I/R episode, the mice were received echocardiography for evaluating the cardiac function. […]” for “the ventilator.”"}},
  "data": [
    {"compound": "CC(=O)OC[C@H]1O[C@@H]([S-])[C@H](OC(C)=O)[C@@H](OC(C)=O)[C@@H]1OC(C)=O.CCP(CC)CC.[Au+]", "note": "[Auranofin, auranofin]", "values": [
      {"measurement": "Unfolding events of PTP-PEST (DSF and DSC)", "setting": "PTP-PEST", "value": "two unfolding events"},
      {"measurement": "Phosphorylation on the specific Tyr residue in Paxillin or p130Cas", "setting": "[1]", "value": "increase"},
      {"measurement": "Infarct size", "setting": "I/R mice [2]; four hours after reperfusion, versus vehicle-only controls", "value": "significantly decreased"},
      {"measurement": "Infarct size", "setting": "I/R mice [2]; one day after reperfusion", "value": "smaller"},
      {"measurement": "Serum troponin I level", "setting": "I/R mice [3]; 4 hours post-I/R", "value": "reduced"},
      {"measurement": "Serum troponin I level", "setting": "I/R mice [3]; one day after reperfusion", "value": "lower"},
      {"measurement": "Cardiac ejection fraction", "setting": "I/R mice [4]; one day post-MI", "value": "significant improvement"},
      {"measurement": "Restoration of cardiac performance judged by echocardiography", "setting": "I/R mice [4]; one week post-MI", "value": "sustained up to one week"}
    ]}
  ]
}
